Experimental findings from patent publication US3997543A (priority 1974, dated 1976) are described below.

Values joined by “and” are separate entries in the source; they are usually repeats but may differ in a detail not shown here. Identical values can stand only once. Like-named read-outs stand apart in the source and are kept apart here.

One series has as its system guinea pig ileum. Description: tissue or blood. Conditions: for EC50: Cavia porcellus, read-out: ED50. The class given is cell-based.
For series [1] the following is noted: pH 7.
A further series concerns Mice Eyes. Conditions: mouse, in vivo.
For series [2], the system named is Human Eyes. The conditions noted are these: in vivo.
Series [3] concerns Human Eyes. The conditions noted are these: in vivo. The source holds these as a separate data set.
The conditions of series [4]: in vivo.

For `CC(=O)OC1CN2CCC1CC2` (racemic) [(±) H Cl, 3-acetoxy-quinuclidine, reference compound], in the series on guinea pig ileum, the “EPMR (Equipotent molar ratio)” value worked out at 20 and the EC50 was determined as 0.7 µM.

Take `CC(=O)OC1CN2CCC1CC2` (single isomer, unassigned; (+)) [(+) 3-acetoxy quinuclidine]: the “stability of solutions on storage” value in series [1] is on record as “no perceptible deterioration”.

Take `CC(=O)OC1CN2CCC1CC2` (single isomer, unassigned; (+)) [(+) H Cl, (+) 3-acetoxy quinuclidine]: the “Time after which acute miosis developed” value in the series on Mice Eyes was 4 min. Besides, in the series with Human Eyes [2], the Pupil Diameter turned out to be 3.5 mm. For the same compound, in the series with Human Eyes [3], the “Pupil Diam.” value is 4.5 mm and 3.0 mm and 3.5 mm. Further, in the series on guinea pig ileum, the ACh-like agonist strength result is recorded as “strongest agonist”, the “Blockade of agonist effect by atropine” value is listed as “blocked” and the “EPMR (Equipotent molar ratio)” value stood at 25.

For the compound `CC(=O)OC1CN2CCC1CC2` (single isomer, unassigned; (-)) [(-) H Cl], the “Reversal of Mydriasis Time” value in the series with Mice Eyes is on record as above 15 min. Besides, the “Pupil Diameter” value with Human Eyes [3] is 4.5 mm and 4.0 mm and 3.5 mm and 3.7 mm and 3.0 mm and 3.2 mm and 3.6 mm. In addition, the “EPMR (Equipotent molar ratio)” value with guinea pig ileum is reported as 100.

For `CC(=O)OCC[N+](C)(C)C` [Acetylcholine, reference compound], the EC50 with guinea pig ileum came to 0.03 µM.

As to `CC[C@@H]1C(=O)OC[C@@H]1Cc1cncn1C` [Pilocarpine], in series [4], the Intraoccular pressure is 31 mmHg and 33 mmHg and 24 mmHg and 25 mmHg and 26 mmHg and 29 mmHg and 28 mmHg.
